Laboratory results: PMC7143510, “In Vitro Efficiency of Antimicrobial Peptides against Staphylococcal Pathogens Associated with Canine Pyoderma” (Animals : an Open Access Journal from MDPI, 2020)
Where no end group is shown, it is not given here.

Assays:
[1] = test system: canine S. pseudintermedius strains; experiment: MIC, broth microdilution (CLSI); assay type: cell-based, Staphylococcus pseudintermedius
Procedure: (§1) Sixty-six well-characterized staphylococcal strains (60 S. pseudintermedius and 6 S. aureus strains) were selected from the archived previously described collection. This study was conducted based on a retrospective analysis of staphylococcal canine strains isolated and archived at the Laboratory of Department of Medical Microbiology of MUG during routine clinical laboratory procedures. All samples were routinely collected by a veterinarian during the course of infection treatment or control visits, not specifically for this research. The animals were swabbed only after the owner’s consent was given, as we stated in the previous published study.
(§2) Staphylococcal strains were classified as multidrug-resistant (MDR) when they were not susceptible to at least one agent in three different classes of antimicrobials. Sixty examined S. pseudintermedius strains included thirty multidrug-resistant strains (MDRSP) and seven methicillin-resistant strains (MRSP). Six canine S. aureus strains, including three multidrug-resistant strains (MDRSA). S. pseudintermedius strains, including MDRSP (n = 30) and MRSP (7) strains, were resistant to: amoxicillin (61.6%), clindamycin (48.3%), erythromycin (45%), gentamicin (33.3%), chloramphenicol (26.6%), sulfamethoxazole/trimethoprim (25%), tetracycline (20%), cefadroxil (11.6%), oxacillin (11.6%) and ciprofloxacin (10%). Six S. aureus strains, including MDRSA (n = 3), were resistant to: amoxicillin (3/6), erythromycin (3/6), gentamicin (3/6), clindamycin (2/6), chloramphenicol (1/6), sulfamethoxazole/trimethoprim (1/6) and doxycycline (1/6). The following reference strains were used: S. aureus ATCC 6538 (MSSA), S. aureus ATCC 43300 (MRSA), S. intermedius PCM 2405. Both the reference- and clinical strains were stored at −80 °C in Tryptic Soy Broth (TSB, Becton–Dickinson, USA) supplemented with 15% glycerol.
(§3) The antimicrobial susceptibility of each strain to the tested peptides was determined using the minimal inhibitory concentrations (MIC) microdilution method as recommended by the Clinical Laboratory Standards Institute (CLSI) guidelines. Briefly, the staphylococcal strains were grown overnight on a Columbia blood agar (Graso Biotech, Poland) at 37 °C. Isolated colonies were suspended in saline solution and adjusted to a 0.5 McFarland standard. The bacterial suspension was diluted ~ 1:100 to a final concentration of 1 × 10^6 colony forming units (cfu/mL). Two-fold serial dilutions of each tested peptide in Mueller–Hinton Broth 2 (Sigma–Aldrich) were added (100 µL) to polypropylene 96-well plates containing bacterial inoculum (100 µL) and were incubated at 37 °C for 18 h. All clinical and reference strains were tested in duplicate. Bacterial growth was assessed visually after incubation and MIC was recorded as the lowest drug concentration at which an observable growth was inhibited. The MIC50 and MIC90 values were defined as the lowest concentrations of peptides at which 50% and 90% of the strains were inhibited, respectively.

canine S. aureus strains [2] = experiment: MIC, broth microdilution (CLSI); assay type: cell-based, Staphylococcus aureus
Procedure: as §1, §2, §3

[3] = test system: canine S. pseudintermedius strains; experiment: MBC, subculture from MIC assay; assay type: cell-based, Staphylococcus pseudintermedius; conditions: 48 h
Procedure: (§4) The loopful (10 µl) of the tested sample was transferred to Triptic Soy Broth (TSB, BD Difco) and incubated at 37 °C for 48 h. MBC was taken as the lowest concentration of each peptide at which staphylococcal colonies were no longer viable on the subculture.

canine S. aureus strains [4] = experiment: MBC, subculture from MIC assay; assay type: cell-based, Staphylococcus aureus; conditions: 48 h
Procedure: as §4

[5] = canine S. pseudintermedius (I), 60 strains, Mueller–Hinton Broth 2, 1 × 10^6 cfu/mL, 37 °C, 18 h, visual, duplicate
[6] = canine S. pseudintermedius (I), 60 strains, lowest concentration inhibiting 50% of strains
[7] = canine S. pseudintermedius (I), 60 strains, lowest concentration inhibiting 90% of strains
[8] = canine S. aureus (II), 6 strains, Mueller–Hinton Broth 2, 1 × 10^6 cfu/mL, 37 °C, 18 h, visual, duplicate
[9] = canine S. aureus (II), 6 strains, lowest concentration inhibiting 50% of strains
[10] = canine S. aureus (II), 6 strains, lowest concentration inhibiting 90% of strains
[11] = canine S. pseudintermedius (I), 60 strains, 10 µl subcultured in TSB, 37 °C
[12] = canine S. aureus (II), 6 strains, 10 µl subcultured in TSB, 37 °C

**Q.** With FLPLIGRVLSGIL-NH2 [Temporin A] as the substance, how does the MIC50 ([1]; 18 h) read?
**A.** 8 µg/mL

**Q.** And the MIC90 ([1]; 18 h)?
**A.** 8 µg/mL

**Q.** What about the “MIC Median (IQR)” value ([1]; 18 h) of the same substance?
**A.** 8 (4–8) µg/mL

**Q.** What about the MIC50 (canine S. aureus strains [2]; canine strains, 18 h) of the same substance?
**A.** 8 µg/mL

**Q.** What about the MIC90 (canine S. aureus strains [2]; canine strains, 18 h) of the same substance?
**A.** 8 µg/mL

**Q.** And the “MIC Median (IQR)” value (canine S. aureus strains [2]; canine strains, 18 h)?
**A.** 8 (8–8) µg/mL

**Q.** What about the “MBC Median (IQR)” value [3] of the same substance?
**A.** 8 (8–8) µg/mL

**Q.** And the “MBC Median (IQR)” value (canine S. aureus strains [4]; canine strains)?
**A.** 8 (8–14) µg/mL

**Q.** GIGKFLKKAKKFGKAFVKILKK-NH2 [Pexiganan] was tested. Which MIC50 ([1]; 18 h) did it give?
**A.** 4 µg/mL

**Q.** And the MIC90 ([1]; 18 h)?
**A.** 4 µg/mL

**Q.** And the “MIC Median (IQR)” value ([1]; 18 h)?
**A.** 4 (2–4) µg/mL

**Q.** What about the MIC50 (canine S. aureus strains [2]; canine strains, 18 h) of the same substance?
**A.** 4 µg/mL

**Q.** What about the MIC90 (canine S. aureus strains [2]; canine strains, 18 h) of the same substance?
**A.** 8 µg/mL

**Q.** And the “MIC Median (IQR)” value (canine S. aureus strains [2]; canine strains, 18 h)?
**A.** 6 (4–8) µg/mL

**Q.** And the “MBC Median (IQR)” value [3]?
**A.** 4 (2–4) µg/mL

**Q.** And the “MBC Median (IQR)” value (canine S. aureus strains [4]; canine strains)?
**A.** 8 (8–8) µg/mL

**Q.** With GLFDIIKKIAESF-NH2 [Aurein 1.2] as the substance, how does the “MIC Median (IQR)” value [1, 5] read?
**A.** 32 (32–32) µg/mL

**Q.** What about the MIC50 [1, 6] of the same substance?
**A.** 32 µg/mL

**Q.** And the MIC90 [1, 7]?
**A.** 32 µg/mL

**Q.** What about the “MIC Median (IQR)” value (canine S. aureus strains [2]; [8]) of the same substance?
**A.** 128 (128–128) µg/mL

**Q.** And the MIC50 (canine S. aureus strains [2]; [9])?
**A.** 128 µg/mL

**Q.** And the MIC90 (canine S. aureus strains [2]; [10])?
**A.** 256 µg/mL

**Q.** What about the “MBC Median (IQR)” value [3, 11] of the same substance?
**A.** 64 (64–64) µg/mL

**Q.** What about the “MBC Median (IQR)” value (canine S. aureus strains [4]; [12]) of the same substance?
**A.** 128 (128–224) µg/mL

**Q.** With GLFDVIKKVASVIGGL-NH2 [Citropin 1.1] as the substance, how does the MIC50 ([1]; 18 h) read?
**A.** 4 µg/mL

**Q.** What about the MIC90 ([1]; 18 h) of the same substance?
**A.** 4 µg/mL

**Q.** What about the “MIC Median (IQR)” value ([1]; 18 h) of the same substance?
**A.** 4 (4–4) µg/mL

**Q.** And the MIC50 (canine S. aureus strains [2]; canine strains, 18 h)?
**A.** 8 µg/mL

**Q.** What about the MIC90 (canine S. aureus strains [2]; canine strains, 18 h) of the same substance?
**A.** 16 µg/mL

**Q.** What about the “MIC Median (IQR)” value (canine S. aureus strains [2]; canine strains, 18 h) of the same substance?
**A.** 8 (8–14) µg/mL

**Q.** What about the “MBC Median (IQR)” value [3] of the same substance?
**A.** 4 (4–4) µg/mL

**Q.** And the “MBC Median (IQR)” value (canine S. aureus strains [4]; canine strains)?
**A.** 12 (8–16) µg/mL

**Q.** What does the source list for GVIDAAKKVVNVLKNLF-NH2 [Uperin 3.6]?
**A.** MIC50 ([1]; 18 h): 2 µg/mL; MIC90 ([1]; 18 h): 2 µg/mL; MIC Median (IQR) ([1]; 18 h): 2 (2–2) µg/mL; MIC50 (canine S. aureus strains [2]; canine strains, 18 h): 8 µg/mL; MIC90 (canine S. aureus strains [2]; canine strains, 18 h): 16 µg/mL; MIC Median (IQR) (canine S. aureus strains [2]; canine strains, 18 h): 8 (8–14) µg/mL; MBC Median (IQR) [3]: 2 (2–4) µg/mL; MBC Median (IQR) (canine S. aureus strains [4]; canine strains): 16 (16–16) µg/mL

**Q.** What does the source list for KWKLFKKIGAVLKVL-NH2 [CAMEL]?
**A.** MIC Median (IQR) [1, 5]: 2 (2–4) µg/mL; MIC50 [1, 6]: 2 µg/mL; MIC90 [1, 7]: 4 µg/mL; MIC Median (IQR) (canine S. aureus strains [2]; [8]): 4 (4–4) µg/mL; MIC50 (canine S. aureus strains [2]; [9]): 4 µg/mL; MIC90 (canine S. aureus strains [2]; [10]): 4 µg/mL; MBC Median (IQR) [3, 11]: 4 (2–4) µg/mL; MBC Median (IQR) (canine S. aureus strains [4]; [12]): 4 (4–4) µg/mL
